Numbered stars: 1 amine (or outer) side, 2 acyl side, 3 side chain; on linkers, the order of the positions; unused ones are H or OH. Square brackets hold non-standard residues; d marks the D form. Peptide text beside a SMILES is read from it. * marks the point of attachment. ACHPA = O=C(C[C@H](O)[C@H](CC1CCCCC1)N[*:1])[*:2]; Sta = CC(C)C[C@H](N)[C@@H](O)CC(=O)O; hhPhe = N[C@@H](CCCc1ccccc1)C(=O)O; hPhe = N[C@@H](CCc1ccccc1)C(=O)O; Isovaleryl = CC(C)CC(=O)*; Boc = CC(C)(C)OC(=O)*

For orientation: Ki means the dissociation constant of the complex between target and ligand, obtained from inhibition or displacement. A higher Ki goes with weaker binding.

One experiment has as its target T1, human kidney renin (Homo sapiens, UniProt P00797).
T1 construct: human kidney renin purified as described in Bangham; from tissue; host or cells: human kidney
T1 sequence (P00797 67-406): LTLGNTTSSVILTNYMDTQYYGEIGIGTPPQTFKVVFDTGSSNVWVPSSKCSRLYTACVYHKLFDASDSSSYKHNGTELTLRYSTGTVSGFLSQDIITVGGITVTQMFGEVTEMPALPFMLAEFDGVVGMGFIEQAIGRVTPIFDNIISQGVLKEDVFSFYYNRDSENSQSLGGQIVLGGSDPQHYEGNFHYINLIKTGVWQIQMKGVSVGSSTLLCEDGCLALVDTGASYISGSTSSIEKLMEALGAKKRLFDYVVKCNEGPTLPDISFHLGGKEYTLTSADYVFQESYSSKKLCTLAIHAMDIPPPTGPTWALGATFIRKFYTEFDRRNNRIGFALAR
Description: Inhibition of purified human kidney renin. The class given is biochemical. The following applies: dissociation constant of the inhibited enzyme-inhibitor complex. As for the experimental part: (§1) Assays were carried out in order to determine the inhibitory potency of the peptides of the present invention. One assay measured the inhibition of hog kidney renin, and was in accordance with the procedure described in Rich et al., J. Med. Chem. 23: 27, 1980, except that a pH of 7.3 was used. Another assay measured the inhibition of human kidney renin purified as described in Bangham, D. R., Robertson, I., Robinson, J. I. S., Robinson, C. J., and Tree, M., Clinical Science and Molecular Medicine, 48 (Supp. 2): 136s-159s (1975), and further purified by affinity chromatography on pepstatin-aminohexyl-Sepharase as described in Poe, M., Wu., J. K., Florance, J. R., Radkey, J. A., Bennett, C. D., and Hoogsteen, K., J. Biol. Chem. 258: 2209-2216 (1983). The assay was also in accordance with Poe et al. cited above. Further assays measured human plasma renin and dog plasma renin in accordance with procedures described in Boger et al, Nature, 303: 81-84 (1983).
Results expressed as KI values refer to the dissociation constant of the inhibited enzyme-inhibitor complex. This KI value was obtained as described above. Pepstatin was used as an active control.

The target in the next experiment is T2, dog plasma renin (Canis lupus familiaris, UniProt Q6DYE7).
T2 construct: Further assays measured human plasma renin and dog plasma renin; from tissue; host or cells: dog plasma
T2 sequence (Q6DYE7 66-403): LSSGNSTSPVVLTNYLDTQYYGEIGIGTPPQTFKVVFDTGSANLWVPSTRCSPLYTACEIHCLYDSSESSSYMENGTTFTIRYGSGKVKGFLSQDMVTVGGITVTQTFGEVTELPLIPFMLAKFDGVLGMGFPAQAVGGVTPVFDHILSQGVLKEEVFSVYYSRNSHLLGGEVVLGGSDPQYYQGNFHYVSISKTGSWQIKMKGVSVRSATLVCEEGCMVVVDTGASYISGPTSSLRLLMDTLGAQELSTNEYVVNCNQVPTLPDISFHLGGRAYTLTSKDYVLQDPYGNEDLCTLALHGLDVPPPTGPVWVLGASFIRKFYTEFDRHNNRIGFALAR
Description: Dog plasma renin assay. As to conditions: read-out: Dog Plasma I50. The experiment is classed as biochemical. As to the method: as §1

The target in the next experiment is T3, human plasma renin (Homo sapiens, UniProt P00797).
T3 construct: Further assays measured human plasma renin and dog plasma renin; from tissue; host or cells: human plasma
T3 sequence (P00797 67-406): T1 sequence (P00797 67-406)
Description: Human plasma renin assay. The class given is biochemical. The following applies: read-out: Human Plasma I50. As to the method: as §1

The next experiment concerns hog renin. The following applies: after the injection of hog renin into nephrectomized rats (Gross et al.); cited from earlier work.

Consider `CC(C)CC(=O)N[C@@H](Cc1c[nH]cn1)C(=O)N1CCC[C@H]1C(=O)N[C@@H](CCc1ccccc1)C(=O)N[C@@H](Cc1c[nH]cn1)C(=O)N[C@@H](CC(C)C)[C@@H](O)CC(=O)N[C@@H](CC(C)C)C(=O)N[C@@H](Cc1ccccc1)C(N)=O` [N^α -Isovaleryl-L-Histidyl-L-Prolyl-L-Homophenylalanyl-L-Histidyl-(3S,4S)-Statyl-L-Leucyl-L-Phenylalanyl Amide] (Isovaleryl-HP[hPhe]H[Sta]LF-NH2), for which affinity on human kidney renin was put at a Ki of 0.33 nM. Also, the IC50 on dog plasma renin was 4.5 nM; on human plasma renin, 0.14 nM.
For the compound `CC(C)CC(=O)N[C@@H](Cc1c[nH]cn1)C(=O)N1CCC[C@H]1C(=O)N[C@@H](CCCc1ccccc1)C(=O)N[C@@H](Cc1c[nH]cn1)C(=O)N[C@@H](CC(C)C)[C@@H](O)CC(=O)N[C@@H](CC(C)C)C(=O)N[C@@H](Cc1ccccc1)C(N)=O` [N^α -Isovaleryl-L-Histidyl-L-Prolyl-L-Bishomophenylalanyl-L-Histidyl-(3S,4S)-Statyl-L-Leucyl-L-Phenylalanyl Amide] (Isovaleryl-HP[hhPhe]H[Sta]LF-NH2), the Ki on human kidney renin came to 90 nM. Moreover, the IC50 on dog plasma renin was 320 nM.
Consider `COC(=O)[C@H](CC(C)C)NC(=O)C[C@H](O)[C@H](CC1CCCCC1)NC(=O)[C@H](Cc1c[nH]cn1)NC(=O)[C@H](CCc1ccccc1)NC(=O)OC(C)(C)C` [BOC--HomoPhe--His--ACHPA--Leu--OCH3, BocHPhe--His--ACHPA--Leu--OCH3], for which the Ki on human kidney renin stood at 0.98 nM.
pepstatin: the “blood pressure in vivo” value in the experiment on hog renin was “reduce blood pressure”.
On to `COC(=O)[C@H](Cc1ccccc1)NC(=O)[C@H](CC(C)C)NC(=O)C[C@H](O)[C@H](CC1CCCCC1)NC(=O)[C@H](Cc1c[nH]cn1)NC(=O)[C@H](CCc1ccccc1)NC(=O)OC(C)(C)C` [BOC--HomoPhe--His--ACHPA--Leu--Phe--OCH3, BocHPhe--His--ACHPA--Leu--Phe--OCH3] (Boc-[hPhe]H[ACHPA]LF-OMe), for which the affinity on human kidney renin, expressed as Ki, was 0.39 nM. For the same compound, the figures for the IC50 at dog plasma renin and on human plasma renin were 16 nM and 4 nM, respectively.
The corresponding values for `CC(C)C[C@H](NC(=O)C[C@H](O)[C@H](CC1CCCCC1)NC(=O)[C@H](Cc1c[nH]cn1)NC(=O)[C@H](CCc1ccccc1)NC(=O)OC(C)(C)C)C(N)=O` [BOC--HomoPhe--His--ACHPA--Leu--NH2, BocHPhe--His--ACHPA--Leu--NH2] are 1.17 nM, 100 nM and 3.9 nM.

These data come from US4668663A, “Renin inhibitors containing homophe^8” (Merck & Co., Inc., priority 1984, dated 1987).
